Laboratory results published in US8278345B2, “Inhibitors of glutaminyl cyclase” (Probiodrug AG, priority 2006, dated 2012).

Target: hQC (Homo sapiens, UniProt Q16769)
Assay: Inhibitor assay for glutaminyl cyclase activity (fluorometric, H-Gln-βNA / H-Gln-AMC)
Type: biochemical
Settings: read-out: IC50
Summary of the method: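 Ki values came from fitting progress curves to a competitive inhibition model; rapid screens used 4 mM inhibitor with substrate at KM. QC activity was read at 30 °C via auxiliary pyroglutamyl aminopeptidase releasing βNA (0.2 mM H-Gln-βNA, 0.2 M Tris pH 8.0, 20 mM EDTA) or AMC (0.05 M Tris pH 8.0, 5 mM EDTA).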

hQC, sequence (Q16769 29-361): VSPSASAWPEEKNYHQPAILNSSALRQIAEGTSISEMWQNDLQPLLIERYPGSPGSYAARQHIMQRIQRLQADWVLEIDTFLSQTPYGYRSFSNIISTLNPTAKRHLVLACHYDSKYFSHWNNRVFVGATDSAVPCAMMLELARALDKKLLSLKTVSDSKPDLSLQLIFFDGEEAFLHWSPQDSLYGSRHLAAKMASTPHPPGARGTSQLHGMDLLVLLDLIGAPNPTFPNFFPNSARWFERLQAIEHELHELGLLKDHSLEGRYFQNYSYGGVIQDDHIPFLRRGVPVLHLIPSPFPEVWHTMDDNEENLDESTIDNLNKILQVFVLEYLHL

| Structure (SMILES) | IC50 [µM] |
| --- | --- |
| O=C1C(O)=C(c2c[nH]c3ccccc23)C(c2ccc3nonc3c2)N1c1ccc2[nH]cnc2c1 (centres unmarked) [Compound 390, 1-(1H-Benzoimidazol-5-yl)-5-(benzo[c][1,2,5]oxadiazol-5-yl)-3-hydroxy-4-(1H-indol-3-yl)-1,5-dihydro-pyrrol-2-one] | 0.04 |
| O=C1C(O)=C(c2ccc(O)cc2)C(c2ccc3cccc(O)c3n2)N1c1ccc2[nH]cnc2c1 (centres unmarked) [Compound 391, 1-(1H-Benzoimidazol-5-yl)-3-hydroxy-4-(4-hydroxy-phenyl)-5-(8-hydroxy-quinolin-2-yl)-1,5-dihydro-pyrrol-2-one] | 0.04 |
| CC(C)(C)C(=O)C1=C(O)C(=O)N(c2ccc3[nH]cnc3c2)C1c1cc2ccccc2nc1Cl (centres unmarked) [Compound 392, 1-(1H-Benzoimidazol-5-yl)-5-(2-chloro-quinolin-3-yl)-4-(2,2-dimethyl-propionyl)-3-hydroxy-1,5-dihydro-pyrrol-2-one] | 4.45 |
| CC1=C(O)C(=O)N(c2ccc3[nH]cnc3c2)C1c1c(F)c(F)cc(F)c1F (centres unmarked) [Compound 393, 1-(1H-Benzoimidazol-5-yl)-3-hydroxy-4-methyl-5-(2,3,5,6-tetrafluoro-phenyl)-1,5-dihydro-pyrrol-2-one] | 4.09 |
| CC1=C(O)C(=O)N(c2ccc3[nH]cnc3c2)C1c1cc(C)c(C)o1 (centres unmarked) [Compound 394, 1-(1H-Benzoimidazol-5-yl)-5-(4,5-dimethyl-furan-2-yl)-3-hydroxy-4-methyl-1,5-dihydro-pyrrol-2-one] | 9.22 |
| Cc1cc(C2C(c3ccccc3)=C(O)C(=O)N2c2ccc3[nH]cnc3c2)oc1C (centres unmarked) [Compound 395, 1-(1H-Benzoimidazol-5-yl)-5-(4,5-dimethyl-furan-2-yl)-3-hydroxy-4-phenyl-1,5-dihydro-pyrrol-2-one] | 1.39 |
| CC(C)(C)C(=O)C1=C(O)C(=O)N(c2ccc3[nH]cnc3c2)C1c1cc(Br)ccc1F (centres unmarked) [Compound 396, 1-(1H-Benzoimidazol-5-yl)-5-(5-bromo-2-fluoro-phenyl)-4-(2,2-dimethyl-propionyl)-3-hydroxy-1,5-dihydro-pyrrol-2-one] | 4.45 |
| CC(=O)C1=C(O)C(=O)N(c2ccc3[nH]cnc3c2)C1c1cc[n+]([O-])cc1 (centres unmarked) [Compound 397, 4-Acetyl-1-(1H-benzoimidazol-5-yl)-3-hydroxy-5-(1-oxy-pyridin-4-yl)-1,5-dihydro-pyrrol-2-one] | 1.21 |
| O=C1C(O)=C(c2ccccc2)C(c2ccc3cccc(O)c3n2)N1c1ccc2[nH]cnc2c1 (centres unmarked) [Compound 398, 1-(1H-Benzoimidazol-5-yl)-3-hydroxy-5-(8-hydroxy-quinolin-2-yl)-4-phenyl-1,5-dihydro-pyrrol-2-one] | 0.04 |
| CC1=C(O)C(=O)N(c2ccc3[nH]cnc3c2)C1c1ccc(C(=O)O)o1 (centres unmarked) [Compound 399, 5-[1-(1H-Benzoimidazol-5-yl)-4-hydroxy-3-methyl-5-oxo-2,5-dihydro-1H-pyrrol-2-yl]-furan-2-carboxylic acid] | 1.39 |
| CCC1=C(O)C(=O)N(c2ccc3[nH]cnc3c2)C1c1c(F)c(F)cc(F)c1F (centres unmarked) [Compound 400, 1-(1H-Benzoimidazol-5-yl)-4-ethyl-3-hydroxy-5-(2,3,5,6-tetrafluoro-phenyl)-1,5-dihydro-pyrrol-2-one] | 6.97 |
| CC(C)(C)C(=O)C1=C(O)C(=O)N(c2ccc3[nH]cnc3c2)C1c1ccc(-c2ccccn2)cc1 (centres unmarked) [Compound 401, 1-(1H-Benzoimidazol-5-yl)-4-(2,2-dimethyl-propionyl)-3-hydroxy-5-(4-pyridin-2-yl-phenyl)-1,5-dihydro-pyrrol-2-one] | 3.01 |
| CC(C)(C)C(=O)C1=C(O)C(=O)N(c2ccc3[nH]cnc3c2)C1c1nccs1 (centres unmarked) [Compound 402, 1-(1H-Benzoimidazol-5-yl)-4-(2,2-dimethyl-propionyl)-3-hydroxy-5-thiazol-2-yl-1,5-dihydro-pyrrol-2-one] | 6.34 |
| CCCC(=O)C1=C(O)C(=O)N(c2ccc3[nH]cnc3c2)C1c1ccnc2ccccc12 (centres unmarked) [Compound 404, 1-(1H-Benzoimidazol-5-yl)-4-butyryl-3-hydroxy-5-quinolin-4-yl-1,5-dihydro-pyrrol-2-one] | 1.57 |
